Assay [1] deals with NCI-H460. As to the kind of experiment: Antiproliferative activity against human lung carcinoma NCI-H460 cell line (MDR(-)).
Assay [2] deals with HCT-15. As to the kind of experiment: Antiproliferative activity against human colon carcinoma HCT-15 cell line(MDR(+)).
For assay [3], the system named is NCI-H460. The experiment in a line: Antiproliferative activity against human lung carcinoma NCI-H460 cell line (MDR(-)); Inactive at >10 uM.
Assay [4] concerns HCT-15. The experiment in a line: Antiproliferative activity against human colon carcinoma HCT-15 cell line(MDR(+)); Inactive at >10 uM.
A further assay concerns the target Tubulin alpha chain (Sus scrofa, UniProt P02550). The experiment in a line: Concentration inhibiting tubulin polymerization. Type of assay: functional.

Usually IC50 stands for the concentration at which inhibition is half-maximal. A high value points to lower potency.

Tubulin alpha chain, sequence (P02550 whole entry, looked up): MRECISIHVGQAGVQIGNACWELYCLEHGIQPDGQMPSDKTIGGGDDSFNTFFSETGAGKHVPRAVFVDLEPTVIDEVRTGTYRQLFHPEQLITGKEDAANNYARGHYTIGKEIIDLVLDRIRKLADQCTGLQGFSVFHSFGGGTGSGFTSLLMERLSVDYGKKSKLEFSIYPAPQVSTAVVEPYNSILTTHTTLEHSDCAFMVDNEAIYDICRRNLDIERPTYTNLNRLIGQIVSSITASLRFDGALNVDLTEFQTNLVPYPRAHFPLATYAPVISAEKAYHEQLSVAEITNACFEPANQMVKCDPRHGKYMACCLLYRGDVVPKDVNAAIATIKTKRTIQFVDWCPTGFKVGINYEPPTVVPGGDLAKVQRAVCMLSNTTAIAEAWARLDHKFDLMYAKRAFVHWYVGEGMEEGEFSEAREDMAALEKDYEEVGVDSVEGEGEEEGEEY

Turning to `COc1ccc(S(=O)(=O)Oc2ccccc2NC(=O)c2ccco2)cc1`, the IC50 in the assay on NCI-H460 [1] was 24 nM; in the assay with HCT-15 [2], 19 nM.

For the compound `COc1ccc(S(=O)(=O)Oc2ccccc2NC(=O)Oc2ccccc2)cc1`, the half-maximal inhibitory concentration (IC50) in the assay with NCI-H460 [1] and in the assay with HCT-15 [2] was over 10000 nM each time.

Turning to `COc1ccc(S(=O)(=O)Oc2ccccc2NC(=O)c2ccc(N(C)C)cc2)cc1`, the IC50 in the assay with NCI-H460 [1] and with HCT-15 [2] was over 10000 nM throughout.

`COc1ccc(S(=O)(=O)Oc2ccccc2NC(=O)c2ccc3ncccc3c2)cc1`: the IC50 in the assay with NCI-H460 [1] and in the assay with HCT-15 [2] was over 10000 nM each time.

As for `COc1ccc(S(=O)(=O)Oc2ccccc2NC(=O)Nc2ccccc2)cc1`, the IC50 with NCI-H460 [1] and in the assay on HCT-15 [2] was over 10000 nM throughout.

On to `COc1ccc(S(=O)(=O)Oc2cccnc2NC(=O)c2ccncc2)cc1`, for which the IC50 entry in the assay on NCI-H460 [3] and in the assay with HCT-15 [4] was “Not Active” throughout.

With `COc1ccc(S(=O)(=O)Oc2ccccc2NC(=O)Cc2ccncc2)cc1`, the 50% inhibitory concentration (IC50) with NCI-H460 [1] worked out at 720 nM; in the assay on HCT-15 [2] it was 600 nM.

Turning to `COc1ccc(S(=O)(=O)Oc2ccccc2NC(=O)c2ccccc2)cc1`, the results for the half-maximal inhibitory concentration (IC50) in the assay on NCI-H460 [1] and in the assay on HCT-15 [2] were 410 nM and 310 nM, respectively.

In the case of `COc1ccc(S(=O)(=O)Oc2ccccc2C(=O)Nc2ccc(F)cc2)cc1`, the IC50 result in the assay on NCI-H460 [3] and in the assay on HCT-15 [4] was “Not Active” in each case.

Regarding `COc1ccc(S(=O)(=O)Oc2ccccc2NC(=O)c2ccccn2)cc1`, the 50% inhibitory concentration (IC50) is 300 nM in the assay on NCI-H460 [1], 4060 nM against Tubulin alpha chain and 110 nM with HCT-15 [2].

As to `COc1ccc(S(=O)(=O)Oc2ccccc2C(=O)Nc2ccccc2)cc1`, the IC50 entry with NCI-H460 [3] and in the assay on HCT-15 [4] was “Not Active” throughout.

In the case of `COc1ccc(S(=O)(=O)Oc2ccccc2NC(=O)c2ccc(F)cc2)cc1`, the IC50 in the assay on NCI-H460 [1] was 550 nM; in the assay on HCT-15 [2], 89 nM.

For `COc1ccc(S(=O)(=O)Oc2ccccc2NC(=O)c2cnccn2)cc1`, the IC50 in the assay with NCI-H460 [1] stood at 250 nM; on Tubulin alpha chain, 5200 nM; with HCT-15 [2] it was 68 nM.

With `COc1ccc(S(=O)(=O)Oc2ccccc2C(=O)Nc2ccncc2)cc1`, the IC50 result in the assay on NCI-H460 [3] and with HCT-15 [4] was “Not Active” in each case.

Consider `COc1ccc(S(=O)(=O)Oc2ccccc2C(=O)Nc2ccccc2C)cc1`, for which the 50% inhibitory concentration (IC50) result with NCI-H460 [3] and in the assay with HCT-15 [4] was “Not Active” in each case.

`COc1ccc(S(=O)(=O)Nc2cccnc2Nc2ccc(O)cc2)cc1` [ABT-751]: the IC50 came to 350 nM in the assay with NCI-H460 [1], 3100 nM on Tubulin alpha chain and 340 nM with HCT-15 [2].

For the compound `COc1ccc(S(=O)(=O)Oc2cccnc2NC(=O)c2ccco2)cc1`, the IC50 result with NCI-H460 [3] and with HCT-15 [4] was “Not Active” throughout.

Consider `COc1ccc(S(=O)(=O)Oc2ccccc2NC(=O)c2ccncc2)cc1`, for which the IC50 in the assay with NCI-H460 [1] amounted to 55 nM; against Tubulin alpha chain, 3730 nM; in the assay on HCT-15 [2], 89 nM.

As for `COc1ccc(S(=O)(=O)Oc2ccccc2NC(=O)c2ccnc3ccccc23)cc1`, the IC50 in the assay with NCI-H460 [1] and with HCT-15 [2] was over 10000 nM in each case.

Consider `COc1ccc(S(=O)(=O)Oc2ccccc2NC(=O)c2cccnc2)cc1`, for which the IC50 in the assay on NCI-H460 [1] was over 6000 nM; in the assay on HCT-15 [2], over 3000 nM.

Turning to `COc1ccc(S(=O)(=O)Oc2ccccc2/C=C/c2ccncc2)cc1`, the figures for the IC50 in the assay on NCI-H460 [1], at Tubulin alpha chain and in the assay with HCT-15 [2] were 130 nM, 3460 nM and 56 nM, respectively.

These data come from ChEMBL document CHEMBL1134114, “Novel sulfonate derivatives: potent antimitotic agents” (Bioorg Med Chem Lett, 2001).
